According to paper PMC11042244 (RSC Medicinal Chemistry, 2024):

Key:
[1] = test system: ROS produced by PMA-stimulated murine bone marrow leukocytes; assay: Antiradical activity assay: L-012-enhanced chemiluminescence of ROS production; type: cell-based, murine (BALB/c mice)
Protocol: (§1) All animal use was conducted in accordance with a protocol approved by the Institutional Animal Care and Use Committee (IACUC) at Montana State University (protocol approval number 2022-45-IA). Bone marrow leukocytes were flushed from tibias and femurs of BALB/c mice (2-month old; 25 g body weight) or CD-1 female mice (2.5-month old; 30 g body weight) with HBSS, filtered through a 70 μm nylon cell strainer (BD Biosciences, Franklin Lakes, NJ) to remove cell clumps and bone particles.
To evaluate antiradical activity, murine bone marrow leukocytes from BALB/c mice were resuspended at 10^6 cells per ml in HBSS containing Ca^2+ and Mg^2+ (HBSS^+) and supplemented with 40 μM L-012 (Wako Chemicals, Richmond, VA),[51] since L-012-enhanced chemiluminescence represents a sensitive and reliable method for detecting ROS.[52] The cells (100 μl) were then aliquoted into wells of 96-well flat-bottom white microtiter plates containing test compounds diluted in 100 μl of HBSS^+ (final DMSO concentration of 1%). The cells were activated by adding 200 nM PMA (Sigma Chemical Co., St. Louis, MO), and luminescence was monitored for 60 min (2 min intervals) at 37 °C using a Fluoroskan Ascent FL microtiter plate reader (Thermo Electron, Waltham, MA). The compound concentration that inhibited ROS production by 50% of the PMA-stimulated response was determined by graphing the percentage inhibition of the 60 min integrated luminescence versus the logarithm of concentration of test compound. Each curve was determined using five to seven compound concentrations. Curve fitting and calculation of median effective concentration values (IC50) were performed by nonlinear regression analysis of the dose–response curves generated using Prism 10 (GraphPad Software, Inc., San Diego, CA, USA).

[2] = test system: murine bone marrow leukocytes; assay: Cytotoxicity assay (CellTiter-Glo luminescent cell viability); type: cell-based, murine (CD-1 mice); details: for Cyto-toxicity IC50: 90 min incubation, mean ± SD of three experiments, N.A. = no cytotoxicity at the highest concentration tested (25 μM); for IC50: Mus musculus, Leukocyte, read-out: Cyto-toxicity IC50
Protocol: as §1
The cytotoxicity of compounds for murine bone marrow leukocytes was analyzed using a CellTiter-Glo Luminescent Cell Viability Assay kit (Promega), according to the manufacturer's protocol. Briefly, bone marrow leukocytes from CD-1 mice were incubated at a density of 10^4 cells per well with different concentrations of compounds (the final concentration of DMSO was 1%) for 90 min at 37 °C and 5% CO2. Following treatment, the substrate was added to the cells, and the samples were analyzed with a FlexStation 3 microplate reader (Molecular Devices, San Jose, CA), USA.

[3] = biological target: T1, HNE (human neutrophil elastase) (Homo sapiens, UniProt P08246); assay: HNE inhibition assay (fluorogenic substrate, enzymatic); type: biochemical; details: mean ± SD of three independent experiments, N.A. = no inhibitory activity at the highest concentration tested (50 μM)
T1 construct: purchased Calbiochem
T1 sequence (P08246 30-247 limits assumed): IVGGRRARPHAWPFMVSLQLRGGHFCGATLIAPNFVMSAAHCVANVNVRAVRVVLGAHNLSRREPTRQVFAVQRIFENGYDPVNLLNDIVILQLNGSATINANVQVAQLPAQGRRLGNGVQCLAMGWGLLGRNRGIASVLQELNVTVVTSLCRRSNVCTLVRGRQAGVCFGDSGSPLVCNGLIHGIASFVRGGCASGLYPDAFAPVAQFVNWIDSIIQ
Protocol: All compounds were dissolved in 100% DMSO at 5 mM stock concentrations and then subsequently diluted in 100% DMSO at various concentrations appropriate for use in the dose–response assays. […] The HNE inhibition assay was performed in black flat-bottom 96-well microtiter plates. Briefly, a buffer solution containing 200 mM Tris-HCl, pH 7.5, 0.01% bovine serum albumin, and 0.05% Tween-20 and 20 mU mL^−1 of HNE (Calbiochem) was added to wells containing different concentrations of each compound. The reaction was initiated by addition of 25 μM elastase substrate (N-methylsuccinyl-Ala-Ala-Pro-Val-7-amino-4-methylcoumarin, Calbiochem) in a final reaction volume of 100 μL per well. Kinetic measurements were obtained every 30 s for 10 min at 25 °C using a Fluoroskan Ascent FL fluorescence microplate reader (Thermo Electron, MA) with excitation and emission wavelengths of 355 and 460 nm, respectively. For all compounds tested, the concentration of inhibitor that caused 50% inhibition of the enzymatic reaction (IC50) was calculated by plotting % inhibition versus logarithm of inhibitor concentration (at least six points).[50]

[4] = inhibition of ROS production, 200 nM PMA, 60 min integrated luminescence, mean ± SD of three experiments, N.A. = no inhibitory activity at the highest concentration tested (50 μM)

SMILES	IC50 ([1]; Mus musculus, Leukocyte, 1 h)	Cyto-toxicity IC50 [2]	IC50 [2]	Antiradical activity IC50 [1, 4]	IC50 [3]	IC50 [1, 4]	HNE inhibition IC50 [3]
CCOC(=O)c1ccc(-n2[se]c3ccccc3c2=O)cc1 [3b]	1800 ± 200 nM	no cytotoxicity					
O=C(NC1CC1)c1ccc(-n2[se]c3ccccc3c2=O)cc1 [3c, N-Cyclopropyl-4-(3-oxobenzo[d][1,2]selenazol-2(3H)-yl)benzamide]	9700 ± 1400 nM		8000 ± 1900 nM				
Cc1cccc(NC(=O)c2ccc(-n3[se]c4ccccc4c3=O)cc2)c1 [3d, 4-(3-Oxobenzo[d][1,2]selenazol-2(3H)-yl)-N-(m-tolyl)benzamide]		no cytotoxicity		inactivity			
CC(=O)n1[se]c2ccccc2c1=O [4a, 2-Acetylbenzo[d][1,2]selenazol-3(2H)-one]	420 ± 60 nM		10800 ± 2400 nM		7700 ± 2300 nM		
CCC(=O)n1[se]c2ccccc2c1=O [4b, 2-Propionylbenzo[d][1,2]selenazol-3(2H)-one]	180 ± 50 nM		8500 ± 1800 nM		2600 ± 200 nM		
CCCC(=O)n1[se]c2ccccc2c1=O [4c, 2-Butyrylbenzo[d][1,2]selenazol-3(2H)-one]	330 ± 80 nM		4900 ± 600 nM		2400 ± 400 nM		
CC(C)C(=O)n1[se]c2ccccc2c1=O [4d, 2-Isobutyrylbenzo[d][1,2]selenazol-3(2H)-one]	600 ± 200 nM		9600 ± 2200 nM		1200 ± 100 nM		
CC(C)(C)C(=O)n1[se]c2ccccc2c1=O [4e, 2-Pivaloylbenzo[d][1,2]selenazol-3(2H)-one]	2600 ± 400 nM		13600 ± 3100 nM		1800 ± 100 nM		
CCCCC(=O)n1[se]c2ccccc2c1=O [4f, 2-pentanoylbenzo[d][1,2]selenazol-3(2H)-one]	< 1000 nM		4200 ± 900 nM		900 ± 200 nM	700 ± 200 nM	
CCCCCC(=O)n1[se]c2ccccc2c1=O [4g, 2-Hexanoylbenzo[d][1,2]selenazol-3(2H)-one]		no cytotoxicity		inactivity	3000 ± 400 nM		
CCOC(=O)n1[se]c2ccccc2c1=O [4h, Ethyl 3-oxobenzo[d][1,2]selenazole-2(3H)-carboxylate]	2500 ± 400 nM		15200 ± 3200 nM				completely inactive
CCOC(=O)CC(=O)n1[se]c2ccccc2c1=O [4i, Ethyl 3-oxo-3-(3-oxobenzo[d][1,2]selenazol-2(3H)-yl)propanoate]	1000 ± 300 nM		8100 ± 1700 nM				
O=C(C1CC1)n1[se]c2ccccc2c1=O [4j, 2-(Cyclopropanecarbonyl)benzo[d][1,2]selenazol-3(2H)-one]			10400 ± 2400 nM		1400 ± 100 nM		
O=C(C1CCCC1)n1[se]c2ccccc2c1=O [4k, 2-(Cyclopentanecarbonyl)benzo[d][1,2]selenazol-3(2H)-one]	1400 ± 200 nM		11800 ± 2800 nM		2800 ± 200 nM		
O=C(C1CCCCC1)n1[se]c2ccccc2c1=O [4l, 2-(Cyclohexanecarbonyl)benzo[d][1,2]selenazol-3(2H)-one]	1100 ± 100 nM		12400 ± 3400 nM		24100 ± 4800 nM		
O=C(c1ccccc1)n1[se]c2ccccc2c1=O [4m, 2-Benzoylbenzo[d][1,2]selenazol-3(2H)-one]					2300 ± 400 nM		
Cc1cccc(C(=O)n2[se]c3ccccc3c2=O)c1 [4n, 2-(3-Methylbenzoyl)benzo[d][1,2]selenazol-3(2H)-one]	7000 ± 1300 nM	no cytotoxicity			10900 ± 2100 nM		
COc1ccc(C(=O)n2[se]c3ccccc3c2=O)cc1 [4o, 2-(4-Methoxybenzoyl)benzo[d][1,2]selenazol-3(2H)-one]					8700 ± 1200 nM		
O=C(c1ccsc1)n1[se]c2ccccc2c1=O [4p, 2-(Thiophene-3-carbonyl)benzo[d][1,2]selenazol-3(2H)-one]	14300 ± 2700 nM	no cytotoxicity					
O=c1c2ccccc2[se]n1-c1ccccc1 [Ebselen (3a), 2-phenyl-1,2-benzoselenazol-3(2H)-one, reference compound]			9500 ± 2500 nM				completely inactive
CC(C)(C)C(=O)Oc1ccc(S(=O)(=O)Nc2ccccc2C(=O)NCC(=O)O)cc1 [Sivelestat, reference compound]		no cytotoxicity					
CC(C)(C)C(=O)Oc1ccc(S(=O)(=O)n2[se]c3ccccc3c2=O)cc1 [compound 6, 4-[(3-Oxobenzo[d][1,2]selenazol-2(3H)-yl)sulfonyl]phenyl pivalate]	6400 ± 400 nM	no cytotoxicity			2700 ± 500 nM		
O=C(NC1CC1)n1[se]c2ccccc2c1=O [compound 8, N-Cyclopropyl-3-oxobenzo[d][1,2]selenazole-2(3H)-carboxamide]	900 ± 300 nM		5900 ± 1600 nM				completely inactive
